# In article PMC10916352, “Safety Evaluation of a Prototypical Diazirine-Based Covalent Crosslinker and Molecular Adhesive” (International Journal of Toxicology, 2023):
# Where “and” joins values, the source holds several entries; their conditions need not be identical. Equal values may be shown once.
# System: isolated bovine cornea
# Assay: Bovine Corneal Opacity and Permeability test (BCOP)
# Set-up: key to Mean Opacity Change: mean of final − initial opacity; opacity = (I0/I − 0.9894)/0.0251
# Experimental: The BCOP Assay was performed to evaluate the eye hazard potential of BondLynx, as measured by its ability to induce opacity and increase permeability in an isolated bovine cornea. The BCOP is an in vitro model that provides short-term maintenance of normal physiological and biological function of the bovine cornea in an isolated system so that eye damage can be assessed by quantitative measurements of changes in corneal opacity and permeability.[45],[46]
# Tests were performed using bovine corneas isolated from the eyes of young cattle after slaughter and transported in biological saline under cooled conditions. […] BondLynx was ground with a mortar and pestle and applied directly to the corneas as a solid. Tests were performed in triplicate.
# Bovine eyes were checked for unacceptable defects, such as opacity, scratches, pigmentation, and neovascularization upon receipt by removing them from the physiological saline and holding them in the light. Corneas were isolated from acceptable specimens and stored in a petri dish with cMEM (Eagle’s Minimum Essential Medium with 1% v/v L-glutamine and 1% v/v foetal bovine serum) at 32 ± 1°C. Isolated corneas were mounted in a corneal holder with the endothelial side against the O-ring of the posterior half of the holder and the anterior half of the holder tightened on top of the cornea with screws. The compartments of the corneal holder were filled with cMEM and the corneas were incubated for a minimum of 1 h at 32 ± 1°C. The initial corneal opacity was determined by replacing the medium in both compartments with fresh cMEM and using an opacitometer to measure the opacity against a cMEM filled chamber. Only corneas with an initial opacity <7 were used for testing.
# A total of three samples were prepared for each test item by removing the medium from the anterior compartment of the holder and applying 750 μL of positive or negative control, or 306.6-333.6 mg of BondLynx. The corneal holders were positioned so that the test item uniformly covered the cornea within, and the entire assembly was incubated at 32 ± 1°C for 240 ± 10 min. The test item was then removed, and the epithelium was washed at least three times with MEM containing phenol red. Corneas were visually inspected for pH effects and dissimilar opacity patterns before refilling both compartments with fresh cMEM.
# Corneal opacity was measured by the diminution of light (I = luminous flux per area) passing through the cornea. The opacity value was calculated according to the formula: Opacity=I0/I−0.9894/0.0251 where I0 is the empirically determined illuminance through a cornea holder with just windows and medium and I is the measured illuminance through a holder with a cornea. The change in opacity for each individual cornea was calculated by subtracting the initial opacity from the final post-treatment reading, and the corrected opacity was calculated by subtracting the average change in opacity of the negative control corneas (if > 0) from the change in opacity for corneas treated with BondLynx or positive control.
# Following the final opacity measurement, permeability of the cornea to Na-fluorescein was evaluated by removing the medium from both corneal holder compartments, then refilling the posterior compartment with fresh cMEM and the anterior compartment with 1 mL of Na-fluorescein in cMEM (5 mg/mL). The corneal holders were positioned so that the test item uniformly covered the cornea within, and the entire assembly was incubated at 32 ± 1°C for 90 ± 5 min. The medium from the posterior compartment was then removed, and a 360 μL aliquot was placed in a 96-well plate to measure the OD490 in triplicate. Any sample with an OD490 that was 1.500 or higher was diluted to bring the OD490 into the acceptable range. The corrected OD490 was calculated by subtracting the average change in OD490 for the negative control (if > 0) from the change in OD490 of either BondLynx or positive control treated cornea.
smiles,measurement,setting,value
"FC(F)(F)C1(c2ccc(C(c3ccc(C4(C(F)(F)F)N=N4)cc3)(C(F)(F)F)C(F)(F)F)cc2)N=N1 [BondLynx, 2,2-bis-[4-[3-(trifluoromethyl)-3H-diazirin-3-yl]phenyl]hexafluoropropane]",Opacity,"240 min exposure, individual corneas",0.9 and 0.7
same,Appearance of corneas after treatment,240 min of treatment,clear
same,UN GHS eye damage classification,IVIS <3: No Category,does not require classification for eye damage or irritation
same,pH effects in the rinsing medium,after 240 min exposure,No pH effects
same,Corrected Opacity Change,individual corneas,1.6 and 0.9 and 0.7
same,Final Opacity,"individual corneas, after 240 min treatment",1.9 and 0.9 and 2.5
same,Initial Opacity,"individual corneas, before treatment",0.3 and 0 and 1.8
same,Opacity Change,"individual corneas, final minus initial",1.6 and 0.9 and 0.7
same,IVIS,"individual corneas, opacity + 15 × OD490",0.9 and 1.0
same,Mean IVIS ± SD,three corneas,1.2 ± 0.4
same,Mean Opacity Change,three corneas,1.1
